Ends that are not written are not given here.
How the values were obtained:
[1] = tested on: muscle tissue, subcutaneous connective tissue, and dermis; assay: Injection into skin, subcutaneous tissue and extremity skeletal muscle of normal rats, histopathology of injection foci at 24 hours; format: in vivo
From the text: The individual foci of infiltration were excised, fixed in 10% formalin, embedded in paraffin, and stained and examined by standard histopathological methods.
The controls received saline alone.
Tissues were excised, fixed in 10% formalin, embedded in paraffin, and stained and examined by standard histopathological methods.

Rat prostate = assay: Intraprostatic infusion in rats, histology of the prostate gland after 72 hours; format: in vivo; conditions: 300 µl of 1 mg/mL in PBS pH 7.4 (1.0 mg/kg), sacrificed after 72 hours, H & E histology
Procedure: Four rats were anesthetized with ether and given NTP peptide #7 by intraprostatic infusion. The injections consisted of 300 µl of NTP peptide #7 1 mg/mL in PBS pH 7.4. (1.0 mg/kg). Controls received injections of PBS alone or no injection. Rats were painlessly sacrificed after 72 hours. Prostate glands were dissected, fixed in 10% buffered formalin for 24 hours, embedded in paraffin, sectioned, and stained with H & E. For each animal the entire prostate gland was embedded and sectioned. All stained sections were examined histologically.
Normal rats were injected in the prostate as in the above Example 2, except they were injected with NTP peptide #17. Rats were painlessly sacrificed after 72 hours and their prostate glands were examined as in Example 2.

LSLPSSWDYG [NTP peptide #7, AD7c-NTP p335-343]
effect on tissue at sites of injection ([1]; injected in skin, subcutaneously and in extremity skeletal muscle, in saline, at 0.1-1 mg/mL, sacrificed at 24 hours): produced necrosis of tissue at the injection sites | spread of necrosis beyond the site of injection ([1]; skin, subcutaneous and skeletal muscle injection, 24 hours): did not appear to spread far beyond the site of injection | effect on tissue at sites of injection (prostate) (Rat prostate): necrosis of tissue at the injection sites with loss of glandular epithelium, flattening and atrophy
